Reference: patent US7297460B2, “Radiation curable ink compositions suitable for ink-jet printing” (Agfa-Gevaert, priority 2003, dated 2007)

Experiment: Solubility of invention compounds in reactive diluents and oligomers
Format: physicochemical

C=C(C)C(=O)OCCC[Si]12O[Si]3(CCCOC(=O)C(=C)C)O[Si]4(CCCOC(=O)C(=C)C)O[Si](CCCOC(=O)C(=C)C)(O1)O[Si]1(CCCOC(=O)C(=C)C)O[Si](CCCOC(=O)C(=C)C)(O2)O[Si](CCCOC(=O)C(=C)C)(O3)O[Si](CCCOC(=O)C(=C)C)(O4)O1 [I.10]
50 wt %: Solubility in CN501 (in CRAYNOR CN501, amino-modified polether acrylate, * footnote: complete solubility after addition of a very small amount of CH2Cl2) | Solubility in TMPTA (in TMPTA = trihydroxymethylpropane triacrylate, * / # footnotes: dissolved after addition of a very small amount of CH2Cl2) | Solubility in TPGDA (in TPGDA = tri(propyleneglycol) diacrylate, * / # footnotes: dissolved after addition of a very small amount of CH2Cl2)
